Reference: PubChem BioAssay (NCI)
Several values for one entry are separate records, joined by “and”; a condition that tells them apart may be missing. Equal entries are not always repeated.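 Following 48 hours of exposure in 96-well plates, responses at five concentrations were used to interpolate endpoints linearly. At the GI50, growth is halved. Definition used: TGI = concentration required for complete inhibition of growth.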

Assays:
Experiment in all cases: NCI anticancer screen, dose series, 48 h
COLO 205 colon = tested on: COLO 205 colon
HOP-62 NSCLC = tested on: HOP-62 NSCLC
HT29 colon = tested on: HT29 colon
K-562 leukemia = tested on: K-562 leukemia
NCI-H23 lung = tested on: NCI-H23 lung
NCI-H460 lung = tested on: NCI-H460 lung
OVCAR-3 ovarian = tested on: OVCAR-3 ovarian
OVCAR-8 ovarian = tested on: OVCAR-8 ovarian
SK-MEL-28 melanoma = tested on: SK-MEL-28 melanoma
SNB-19 CNS = tested on: SNB-19 CNS
HCC-2998 colon = tested on: HCC-2998 colon
HOP-92 NSCLC = tested on: HOP-92 NSCLC

## CCSc1nc(N)c2c(-c3ccc(OC)c(OC)c3)c3c(nc2n1)CCCC3
COLO 205 colon
  TGI: > 100 µM
HOP-62 NSCLC
  TGI: > 100 µM
HT29 colon
  TGI: > 100 µM
K-562 leukemia
  TGI: > 100 µM
NCI-H23 lung
  TGI: > 100 µM
NCI-H460 lung
  TGI: > 100 µM
OVCAR-3 ovarian
  TGI: > 100 µM
OVCAR-8 ovarian
  TGI: > 100 µM
SK-MEL-28 melanoma
  TGI: > 100 µM
SNB-19 CNS
  TGI: > 100 µM

## C=CCc1cc(-c2cc(CC=C)c(O)c(CN(CCCl)CCCl)c2)cc(CN(CCCl)CCCl)c1O
COLO 205 colon
  TGI: 43.4 µM
HCC-2998 colon
  TGI: 29.2 µM
HOP-62 NSCLC
  TGI: 43.5 µM
HOP-92 NSCLC
  TGI: 32.2 µM
HT29 colon
  TGI: 33.3 µM
K-562 leukemia
  TGI: > 100 µM
NCI-H23 lung
  TGI: 22.1 µM
NCI-H460 lung
  TGI: 29.1 µM
OVCAR-3 ovarian
  TGI: 36.2 µM
OVCAR-8 ovarian
  TGI: 74.1 µM
SK-MEL-28 melanoma
  TGI: 40.2 µM
SNB-19 CNS
  TGI: 51.8 µM

## CC(C)(C)NCc1cc(Nc2ccnc3cc(Cl)ccc23)cc(-c2ccc(Cl)cc2)c1O
COLO 205 colon
  TGI: 3.35 µM
HCC-2998 colon
  TGI: 3.82 µM
HOP-62 NSCLC
  TGI: 6.38 µM
HOP-92 NSCLC
  TGI: 7.08 µM
HT29 colon
  TGI: 4.42 µM
K-562 leukemia
  TGI: 2.75 µM
NCI-H23 lung
  TGI: 14 µM
NCI-H460 lung
  TGI: 8.18 µM
OVCAR-3 ovarian
  TGI: 8.75 µM
OVCAR-8 ovarian
  TGI: 14.8 µM
SK-MEL-28 melanoma
  TGI: 3.26 µM
SNB-19 CNS
  TGI: 18.2 µM

## O=C(O)CCCCCCC[C@@H]1S[C@H]1CCCCCCO
COLO 205 colon
  TGI: > 100 µM
HCC-2998 colon
  TGI: > 100 µM
HOP-62 NSCLC
  TGI: > 100 µM
HOP-92 NSCLC
  TGI: > 94.4 µM
HT29 colon
  TGI: > 100 µM
K-562 leukemia
  TGI: > 100 µM
NCI-H23 lung
  TGI: > 100 µM
NCI-H460 lung
  TGI: > 100 µM
OVCAR-3 ovarian
  TGI: > 100 µM
OVCAR-8 ovarian
  TGI: > 100 µM
SK-MEL-28 melanoma
  TGI: > 100 µM
SNB-19 CNS
  TGI: > 100 µM

## COC(=O)CCC(=O)CC(=O)C1=NS(=O)(=O)c2nc(S(N)(=O)=O)c(Cl)cc2N1
COLO 205 colon
  TGI: > 100 µM
HCC-2998 colon
  TGI: > 100 µM
HOP-62 NSCLC
  TGI: > 100 µM
HOP-92 NSCLC
  TGI: > 100 µM
HT29 colon
  TGI: > 100 µM
K-562 leukemia
  TGI: > 100 µM
NCI-H23 lung
  TGI: > 100 µM
NCI-H460 lung
  TGI: > 100 µM
OVCAR-3 ovarian
  TGI: > 100 µM
OVCAR-8 ovarian
  TGI: > 100 µM
SK-MEL-28 melanoma
  TGI: > 100 µM
SNB-19 CNS
  TGI: > 100 µM

## Nc1ccccc1CCCC(=O)O
COLO 205 colon
  TGI: > 100 µM
HCC-2998 colon
  TGI: > 100 µM
HOP-62 NSCLC
  TGI: > 100 µM
HOP-92 NSCLC
  TGI: > 100 µM
HT29 colon
  TGI: > 100 µM
K-562 leukemia
  TGI: > 100 µM
NCI-H23 lung
  TGI: > 100 µM
NCI-H460 lung
  TGI: > 100 µM
OVCAR-3 ovarian
  TGI: > 100 µM
OVCAR-8 ovarian
  TGI: > 100 µM
SK-MEL-28 melanoma
  TGI: > 100 µM
SNB-19 CNS
  TGI: > 100 µM

## COCc1nc2c(OC)cc(-c3nc4nc(N5CCN(C)CC5)ccc4[nH]3)c(OC)c2[nH]1
COLO 205 colon
  TGI: > 100 µM
HCC-2998 colon
  TGI: > 100 µM
HOP-62 NSCLC
  TGI: > 100 µM
HOP-92 NSCLC
  TGI: > 100 µM
HT29 colon
  TGI: > 100 µM
K-562 leukemia
  TGI: > 100 µM
NCI-H23 lung
  TGI: > 100 µM
NCI-H460 lung
  TGI: > 100 µM
OVCAR-3 ovarian
  TGI: 83 µM
OVCAR-8 ovarian
  TGI: > 100 µM
SK-MEL-28 melanoma
  TGI: > 100 µM
SNB-19 CNS
  TGI: > 100 µM

## CC1C(=O)OC2CC[N+]3(CC(=O)c4ccc(Br)cc4)CC=C(COC(=O)C(C)(O)C1(C)O)C23 (stereo unspecified)
COLO 205 colon
  TGI: > 375 µM
HCC-2998 colon
  TGI: > 375 µM
HOP-62 NSCLC
  TGI: > 375 µM
HOP-92 NSCLC
  TGI: > 375 µM
HT29 colon
  TGI: > 375 µM
K-562 leukemia
  TGI: > 375 µM
NCI-H23 lung
  TGI: > 375 µM
NCI-H460 lung
  TGI: > 375 µM
OVCAR-3 ovarian
  TGI: > 375 µM
OVCAR-8 ovarian
  TGI: > 17.4 µM
SK-MEL-28 melanoma
  TGI: > 375 µM
SNB-19 CNS
  TGI: > 375 µM

## CN(C)c1ccc(/C=C2/SC(=S)NC2=O)cc1
COLO 205 colon
  TGI: > 100 µM
HCC-2998 colon
  TGI: > 100 µM
HOP-62 NSCLC
  TGI: > 100 µM
HOP-92 NSCLC
  TGI: > 100 µM
HT29 colon
  TGI: > 100 µM
K-562 leukemia
  TGI: > 100 µM
NCI-H23 lung
  TGI: > 100 µM
NCI-H460 lung
  TGI: > 100 µM
OVCAR-3 ovarian
  TGI: > 100 µM
OVCAR-8 ovarian
  TGI: > 100 µM
SK-MEL-28 melanoma
  TGI: > 100 µM
SNB-19 CNS
  TGI: > 100 µM

## S=C1SC(=Nc2ccccc2)C(=Nc2ccccc2)N1c1ccccc1
COLO 205 colon
  TGI: > 100 µM
HCC-2998 colon
  TGI: > 100 µM
HOP-62 NSCLC
  TGI: > 100 µM
HT29 colon
  TGI: > 100 µM
K-562 leukemia
  TGI: > 100 µM
NCI-H23 lung
  TGI: > 100 µM
NCI-H460 lung
  TGI: > 100 µM
OVCAR-3 ovarian
  TGI: > 100 µM
OVCAR-8 ovarian
  TGI: > 100 µM
SK-MEL-28 melanoma
  TGI: > 100 µM
SNB-19 CNS
  TGI: > 100 µM

## O=c1[nH]c(Nc2ccc(F)c(Cl)c2)nc2nc[nH]c12
COLO 205 colon
  TGI: > 100 µM
HCC-2998 colon
  TGI: > 100 µM
HOP-62 NSCLC
  TGI: > 100 µM
HOP-92 NSCLC
  TGI: > 100 µM
HT29 colon
  TGI: > 100 µM
NCI-H23 lung
  TGI: > 100 µM
NCI-H460 lung
  TGI: > 100 µM
OVCAR-3 ovarian
  TGI: > 100 µM
OVCAR-8 ovarian
  TGI: > 100 µM
SK-MEL-28 melanoma
  TGI: > 100 µM
SNB-19 CNS
  TGI: > 100 µM

## Cc1cc(NC(=S)Nc2ccccc2)c(NC(=S)Nc2ccccc2)cc1C
COLO 205 colon
  TGI: > 74.3 µM
HCC-2998 colon
  TGI: > 57.6 µM
HOP-62 NSCLC
  TGI: > 100 µM
HOP-92 NSCLC
  TGI: > 100 µM
HT29 colon
  TGI: > 100 µM
K-562 leukemia
  TGI: 41.2 µM
NCI-H23 lung
  TGI: > 95.1 µM
NCI-H460 lung
  TGI: > 61.7 µM
OVCAR-3 ovarian
  TGI: 50.9 µM
OVCAR-8 ovarian
  TGI: > 100 µM
SK-MEL-28 melanoma
  TGI: > 100 µM
SNB-19 CNS
  TGI: > 100 µM

## N#C[S-].[Nd+3].c1cnc2c(c1)ccc1cccnc12.c1cnc2c(c1)ccc1cccnc12.c1cnc2c(c1)ccc1cccnc12
COLO 205 colon
  TGI: 15.6 µM
HCC-2998 colon
  TGI: 20 µM
HOP-62 NSCLC
  TGI: 20.6 µM
HOP-92 NSCLC
  TGI: 17.2 µM
HT29 colon
  TGI: 20.2 µM
K-562 leukemia
  TGI: > 100 µM
NCI-H23 lung
  TGI: 23.3 µM
OVCAR-3 ovarian
  TGI: 16.1 µM
SK-MEL-28 melanoma
  TGI: 32.1 µM
SNB-19 CNS
  TGI: 20.3 µM

## CC1=C(C)C(=O)O[C@@H]([C@](C)(O)[C@]2(O)CC[C@@]3(O)[C@@H]4C[C@H]5O[C@]56[C@@H](O)C=CC(=O)[C@]6(C)[C@H]4CC[C@]23C)C1
COLO 205 colon
  GI50: 0.0847 µM and 0.0461 µM
  TGI: 0.436 µM and 0.255 µM
HCC-2998 colon
  TGI: 5.76 µM
HOP-62 NSCLC
  GI50: 1.28 µM
  TGI: 11.4 µM and 14.6 µM
HOP-92 NSCLC
  TGI: 0.345 µM
HT29 colon
  TGI: 5.35 µM
K-562 leukemia
  GI50: 0.126 µM and 0.0515 µM
  TGI: 2.62 µM and 15 µM
NCI-H23 lung
  GI50: 0.38 µM and 0.205 µM
  TGI: 4.63 µM and 1.29 µM
NCI-H460 lung
  GI50: 2 µM
  TGI: 9.22 µM and 9.66 µM
OVCAR-3 ovarian
  GI50: 0.136 µM and 0.0594 µM
  TGI: 1.64 µM and 0.359 µM
OVCAR-8 ovarian
  GI50: 0.155 µM
  TGI: 4.2 µM
SK-MEL-28 melanoma
  GI50: 0.606 µM and 0.228 µM
  TGI: 5.86 µM and 3.44 µM
SNB-19 CNS
  TGI: 31.1 µM

## C[n+]1c2ccccc2c(CNc2ccc(S(=O)(=O)N=C(N)N)cc2)c2ccccc21
HCC-2998 colon
  TGI: 39.2 µM
HOP-62 NSCLC
  TGI: 40 µM
HOP-92 NSCLC
  TGI: 54.3 µM
HT29 colon
  TGI: 49.8 µM
K-562 leukemia
  TGI: 52 µM
NCI-H23 lung
  TGI: 33.3 µM
NCI-H460 lung
  TGI: 15 µM
OVCAR-3 ovarian
  TGI: 48.7 µM
OVCAR-8 ovarian
  TGI: 55.4 µM
SK-MEL-28 melanoma
  TGI: 40.7 µM
SNB-19 CNS
  TGI: 31.6 µM

## CC(C)=CC1C(COC(=O)c2cc3c(cc2Cl)OCO3)C1(C)C (stereo unspecified)
HOP-62 NSCLC
  TGI: > 100 µM
HOP-92 NSCLC
  TGI: 78 µM
HT29 colon
  TGI: > 100 µM
K-562 leukemia
  TGI: > 100 µM
NCI-H23 lung
  TGI: > 100 µM
NCI-H460 lung
  TGI: > 100 µM
OVCAR-3 ovarian
  TGI: 65.1 µM
OVCAR-8 ovarian
  TGI: > 100 µM
SK-MEL-28 melanoma
  TGI: > 100 µM
SNB-19 CNS
  TGI: > 100 µM
